# Data: patent US11912682B2, “Isoindolinone compounds” (Monte Rosa Therapeutics, Inc., priority 2021, dated 2024)
# Where two headings read alike, the source gives them in different places.
# What was measured:
# GSPT1 = GSPT1 (Homo sapiens (Human), UniProt P15170+Q96SW2); assay: immunofluorescence assay for GSPT1 degradation in CAL-51 cells (Example 4); assay type: cell-based
# Description: The representative compounds were tested in an immunofluorescence assay for their activity to bind to degrade GSPT1. CAL-51 cells were purchased from DSMZ (cat. Number ACC302), sub-cultured in 90% Dulbecco's MEM (4.5 g/L glucose, Gibco 11965) +10% heat inactivated FBS (BioConcept, 2-01F136I) and incubated at 37° C., 5% CO2. For the assay, imaging microtiterplate Cell Carrier 96 Ultra (Perkin Elmer 6055302) were pre-coated with Fibronectin (Sigma F085, 30 μl at 0.2 μg/ml) in PBS (100 μl, Gibco 14190) for 45 min at room temperature, rinsed with PBS and CAL-51 cells (30 K cells/well) were plated and let to adhere overnight. Cells were treated with compounds typically using a serial dilution ranging from 30 μM to 0.1 nM for 6 hours. Compounds were stored at 10 mM DMSO stocks. Vehicle (DMSO), positive (CC-885, 10 μM) and rescue controls (positive control plus 0.2 μM bortezomib) were also included atthis stage. Cells were subsequently rinsed with PBS and fixed in 10% Formalin solution (50 μl, Sigma HT5011)) for 20 mins at room temperature. Following three consecutive PBS washes (100 μl), cells were permeabilized in 0.1% Triton X-100 in PBS (Sigma 93443, 50 μl) for 15 mins at room temperature. Following three further PBS washes, 50 μl blocking buffer (1% BSA, Sigma A4503, in PBS) was added for 45 min for signal-to-noise reduction.
# Primary antibody (human GSPT1, Sigma HPA052488) was diluted in blocking buffer (dil.1/300, 35 μl/well) and incubated with the cells overnight at 4° C. After three PBS washes, Alexa-fluor 488 coupled secondary antibodies (Invitrogen, A32731, dil.1/1000), Alexa-fluor 647-Phalloidin (Invitrogen, A22287, dil.1/200) and DAPI (Thermo, #62248, dil.1/1000) were diluted in blocking buffer and incubated with the samples for 2 hours at room temperature. After three final PBS washes, samples were conserved in 100 μl PBS in the dark, until measurement. Image acquisition was performed on the Operetta High-Content Imager (Perkin-Elmer). Fluorescence intensity of Alexa-Fluor 488 (GSPT1), Alexa-Fluor 647 (Actin) and DAPI (Nucleus) were measured. For the determination of GSPT1 DC50 values, a custom algorithm implemented in the PerkinElmer image analysis software Harmony-Acapella® was developed. After user-defined setting of adjustment parameters, the analysis was run identically without human intervention for all image fields. DAPI staining of the nuclei was used to determine the location of cells using standard nuclei detection modules. Segmentation artifacts were removed by threshold-based filters for area, roundness and intensity. The outline of the cells was determined analogously from the sum of the normalized, smoothed DAPI and Actin channel, starting from each nucleus. The Alexa-Fluor 488 (GSPT1) signal intensity in each cell was finally measured, in order to obtain a Mean intensity per cell. GSPT1 degradation (DC50) was calculated after normalization to controls and data import in CDD vault Database, using non-linear regression.
# [1] = target: Full length wild-type cereblon CRBN (Homo sapiens (Human), UniProt Q96SW2); assay: fluorescence polarization (FP) assay, cereblon binding
# From the text: Compound activity was monitored in a fluorescence polarization (FP) homogeneous assay using 1-[5-({2-[2-(2-{[2-(2,6-dioxopiperidin-3-yl)-1,3-dioxo-2,3-dihydro-1H-isoindol-4-yl]oxy}acetamido)ethoxy]ethyl}carbamoyl)pentyl]-3,3-dimethyl-2-[(1E,3E)-5-[(2E)-1,3,3-trimethyl-5-sulfo-2,3-dihydro-1H-indol-2-ylidene]penta-1,3-dien-1-yl]-3H-indol-1-ium-5-sulfonate as a fluorescent probe. Unless otherwise stated, all reagents were purchased from Sigma Aldrich. […] Full length wild-type cereblon CRBN (80.0 nM, 10 μL) was incubated in assay buffer containing 20 mM HEPES (pH 8.0), […], 0.5 mM TCEP and 0.05% Tween 20 in the presence or absence of compound (300 nL). Inhibitors were stored as 10 mM DMSO stocks in an inert environment (low humidity, dark, low oxygen, room temperature) using the Storage Pod System. […] Following incubation at room temperature for 30 min, the assay was initiated by dispensing the probe to a final concentration of 5 nM (2.5 nL of a 20 μM stock) using the Echo ESXX. […] The FP signal was subsequently normalized to the no-compound control (i.e., DMSO). Analysis and IC50 values were derived using Dotmatics (Dotmatics UK) software.
# [2] = 6 hours, read-out: Activity for GSPT1 degradation, Code (DC50)
# [3] = GSPT1 degradation, read-out: DC50 value
# Chain of GSPT1 (P15170 whole entry): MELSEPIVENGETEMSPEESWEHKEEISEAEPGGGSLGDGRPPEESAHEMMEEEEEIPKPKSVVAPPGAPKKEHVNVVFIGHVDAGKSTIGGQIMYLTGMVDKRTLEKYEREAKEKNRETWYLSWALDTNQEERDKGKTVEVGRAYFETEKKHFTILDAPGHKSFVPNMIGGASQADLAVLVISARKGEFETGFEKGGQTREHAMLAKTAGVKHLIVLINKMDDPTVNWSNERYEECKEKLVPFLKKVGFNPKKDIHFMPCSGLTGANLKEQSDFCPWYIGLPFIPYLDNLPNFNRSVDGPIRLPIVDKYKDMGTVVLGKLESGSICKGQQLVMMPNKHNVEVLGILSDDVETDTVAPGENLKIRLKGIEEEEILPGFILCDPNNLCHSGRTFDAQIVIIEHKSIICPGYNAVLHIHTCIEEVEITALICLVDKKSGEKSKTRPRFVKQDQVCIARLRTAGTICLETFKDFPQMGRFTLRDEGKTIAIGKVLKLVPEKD
# Chain of GSPT1 (Q96SW2 whole entry): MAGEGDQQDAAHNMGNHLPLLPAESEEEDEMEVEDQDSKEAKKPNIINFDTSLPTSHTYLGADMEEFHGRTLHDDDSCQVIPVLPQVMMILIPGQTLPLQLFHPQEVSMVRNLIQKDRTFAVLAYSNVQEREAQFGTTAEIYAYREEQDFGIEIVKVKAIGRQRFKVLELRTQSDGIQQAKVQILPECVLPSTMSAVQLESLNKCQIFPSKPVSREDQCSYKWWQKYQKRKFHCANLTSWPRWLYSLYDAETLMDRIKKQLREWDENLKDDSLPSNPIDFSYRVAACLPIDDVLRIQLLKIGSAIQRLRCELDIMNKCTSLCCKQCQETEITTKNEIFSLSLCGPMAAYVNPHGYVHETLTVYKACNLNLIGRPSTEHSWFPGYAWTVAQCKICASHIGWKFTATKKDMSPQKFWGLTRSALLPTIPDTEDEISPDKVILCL
# Chain of GSPT1 (Q16531 2-1140 partner): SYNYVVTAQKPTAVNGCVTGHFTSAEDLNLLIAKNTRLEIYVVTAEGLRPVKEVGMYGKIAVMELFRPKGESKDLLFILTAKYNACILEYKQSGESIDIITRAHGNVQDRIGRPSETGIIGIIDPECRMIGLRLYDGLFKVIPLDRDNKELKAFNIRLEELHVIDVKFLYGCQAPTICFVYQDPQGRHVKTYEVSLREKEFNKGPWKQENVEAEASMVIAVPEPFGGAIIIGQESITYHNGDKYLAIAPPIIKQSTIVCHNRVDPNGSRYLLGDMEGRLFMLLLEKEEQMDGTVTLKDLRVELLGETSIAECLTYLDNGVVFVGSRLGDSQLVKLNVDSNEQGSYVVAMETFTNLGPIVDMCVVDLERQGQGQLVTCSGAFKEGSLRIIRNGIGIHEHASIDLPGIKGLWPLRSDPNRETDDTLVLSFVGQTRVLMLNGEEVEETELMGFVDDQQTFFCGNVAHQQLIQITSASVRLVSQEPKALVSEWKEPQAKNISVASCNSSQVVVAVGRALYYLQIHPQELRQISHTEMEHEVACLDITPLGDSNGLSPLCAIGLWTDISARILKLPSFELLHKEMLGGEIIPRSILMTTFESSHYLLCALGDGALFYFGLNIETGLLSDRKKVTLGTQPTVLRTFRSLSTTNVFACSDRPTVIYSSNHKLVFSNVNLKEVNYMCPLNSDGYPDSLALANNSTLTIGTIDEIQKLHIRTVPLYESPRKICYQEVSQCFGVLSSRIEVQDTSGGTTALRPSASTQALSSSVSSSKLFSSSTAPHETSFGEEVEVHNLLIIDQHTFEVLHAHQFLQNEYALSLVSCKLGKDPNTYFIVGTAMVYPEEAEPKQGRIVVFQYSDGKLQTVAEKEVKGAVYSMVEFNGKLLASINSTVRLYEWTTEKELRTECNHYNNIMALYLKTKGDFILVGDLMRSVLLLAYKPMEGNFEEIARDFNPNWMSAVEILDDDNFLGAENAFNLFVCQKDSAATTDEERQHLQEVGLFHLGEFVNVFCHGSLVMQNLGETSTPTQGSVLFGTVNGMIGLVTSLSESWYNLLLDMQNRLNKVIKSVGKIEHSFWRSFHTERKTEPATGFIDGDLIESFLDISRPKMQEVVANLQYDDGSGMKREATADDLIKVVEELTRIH
# Chain of Full length wild-type cereblon CRBN (Q96SW2 whole entry): as the sequence (Q96SW2 whole entry) above
Compound,DC50 (GSPT1; [2]),IC50 ([1]; read-out: IC50 value),DC50 (GSPT1; [3]),IC50 ([1]; read-out: rFP IC50)
CN(C)C1CN(c2ccc(NC(=O)OCc3ccc4c(c3)C(=O)N(C3CCC(=O)NC3=O)C4)cn2)C1 (centres unmarked) [Compound 89],> 300 nM,< 1100 nM,–,–
Cc1c(Cl)cc(NC(=O)OCc2ccc3c(c2)C(=O)N(C2CCC(=O)NC2=O)C3)cc1CN1CC2CC1CO2 (centres unmarked) [Compound 13],< 30 nM,< 1100 nM,≤ 30 nM,–
O=C1CCC(N2Cc3ccc(COC(=O)Nc4ccnc(-c5ccccc5)c4)cc3C2=O)C(=O)N1 (centres unmarked) [Compound 149],> 300 nM,–,–,< 500 nM
"Cc1cc(NC(=O)OCc2ccc3c(c2)C(=O)N(C2CCC(=O)NC2=O)C3)cc(C)c1F (centres unmarked) [Compound 124, (2-(2,6-dioxopiperidin-3-yl)-3-oxoisoindolin-5-yl)methyl (4-fluoro-3,5-dimethylphenyl)carbamate]",30 to 300 nM,–,–,< 500 nM
O=C1CCC(N2Cc3ccc(COC(=O)Nc4cnc(N5CCCCC5)c(F)c4)cc3C2=O)C(=O)N1 (centres unmarked) [Compound 72],30 to 300 nM,< 1100 nM,–,–
O=C1CCC(N2Cc3ccc(COC(=O)Nc4ccc(C5CCC5)cc4)cc3C2=O)C(=O)N1 (centres unmarked) [Compound 104],30 to 300 nM,–,–,> 1700 nM
"O=C1CCC(N2Cc3ccc(COC(=O)Nc4ccc(-c5ccccn5)cc4F)cc3C2=O)C(=O)N1 (centres unmarked) [Compound 135, (2-(2,6-dioxopiperidin-3-yl)-3-oxoisoindolin-5-yl)methyl (2-fluoro-4-(pyridin-2-yl)phenyl)carbamate]",< 30 nM,–,≤ 30 nM,< 500 nM
"Cc1cc(NC(=O)OCc2ccc3c(c2)C(=O)N(C2CCC(=O)NC2=O)C3)ccc1-c1ccccc1 (centres unmarked) [Compound 137, (2-(2,6-dioxopiperidin-3-yl)-3-oxoisoindolin-5-yl)methyl(2-methyl-[1,1′-biphenyl]-4-yl)carbamate]",< 30 nM,–,≤ 30 nM,> 1700 nM
"O=C1CCC(N2Cc3ccc(COC(=O)Nc4cc(OC(F)(F)F)ccc4Cl)cc3C2=O)C(=O)N1 (centres unmarked) [Compound 125, (2-(2,6-dioxopiperidin-3-yl)-3-oxoisoindolin-5-yl)methyl(2-chloro-5-(trifluoromethoxy)phenyl)carbamate]",> 300 nM,–,–,> 1700 nM
CC1CCCN1c1ccc(NC(=O)OCc2ccc3c(c2)C(=O)N(C2CCC(=O)NC2=O)C3)cn1 (centres unmarked) [Compound 74],< 30 nM,–,≤ 30 nM,< 500 nM
Cc1cc(C)cc(NC(=O)OCc2ccc3c(c2)C(=O)N(C2CCC(=O)NC2=O)C3)c1 (centres unmarked) [Compound 8],< 30 nM,< 1100 nM,≤ 30 nM,–
CN1CCC(COc2cc(Cl)cc(NC(=O)OCc3ccc4c(c3)C(=O)N(C3CCC(=O)NC3=O)C4)c2)C1 (centres unmarked) [Compound 40],30 to 300 nM,–,–,< 500 nM
CCc1cc(NC(=O)OCc2ccc3c(c2)C(=O)N(C2CCC(=O)NC2=O)C3)ccn1 (centres unmarked) [Compound 63],> 300 nM,–,–,< 500 nM
CC1(C)COc2cc(NC(=O)OCc3ccc4c(c3)C(=O)N(C3CCC(=O)NC3=O)C4)ccc21 (centres unmarked) [Compound 83],< 30 nM,< 1100 nM,≤ 30 nM,–
O=C1CCC(N2Cc3ccc(COC(=O)Nc4ccc(C5COC5)cc4)cc3C2=O)C(=O)N1 (centres unmarked) [Compound 81],30 to 300 nM,–,–,< 500 nM
Cc1c(Cl)cc(NC(=O)OCc2ccc3c(c2)C(=O)N(C2CCC(=O)NC2=O)C3)cc1OC1CCN(C)C1 (centres unmarked) [Compound 68],< 30 nM,< 1100 nM,≤ 30 nM,–
O=C1CCC(N2Cc3ccc(COC(=O)Nc4ccc5c(c4)OCC5)cc3C2=O)C(=O)N1 (centres unmarked) [Compound 18],30 to 300 nM,< 1100 nM,–,–
CN1CCC(Oc2cc(Cl)cc(NC(=O)OCc3ccc4c(c3)C(=O)N(C3CCC(=O)NC3=O)C4)c2)C1 (centres unmarked) [Compound 46],< 30 nM,–,≤ 30 nM,< 500 nM
